This note sets out measurements from US9856279B2 (AGIOS PHARMACEUTICALS, INC, priority 2011, dated 2018).

Some results are limits rather than exact numbers.

Experiment [1] has as its system HT1080 cells. The experiment in a line: Cellular assay for IDH1m inhibitors: inhibition of 2-HG production (LC-MS, 48 hours) in HT1080 cells. It is filed as cell-based. Conditions: Homo sapiens, HT-1080; inhibition of 2-HG production, HT1080 cells; read-out: HT1080 IC50. Put shortly:
(§1)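 Inhibition of 2-HG production was assessed in cells seeded at 5000/well and exposed to compound for 48 h (final DMSO 0.2%). Supernatant 2-HG was analysed by LC-MS.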

The target of experiment [2] is IDH1 R132H (Homo sapiens, UniProt O75874, R132H). As to the kind of experiment: Assay for IDH1 R132H inhibitors (NADPH/aKG, resazurin detection). It is filed as biochemical. The settings on record: enzyme assay of Example 12; read-out: IDH1R132H IC50. The method, boiled down: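 Read-out is resorufin fluorescence (Ex544/Em590) 5 min after adding a 30 μM resazurin detection mix. Before that, mutant enzyme (0.2 μg/ml in its mix) ran 50 min at room temperature with compound, 8 uM NADPH and 2 mM aKG (mix levels) in Tris pH 7.5 with NaCl, MgCl2, BSA.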
(Resazurin is reduced to fluorescent resorufin, in cell work by metabolically active cells.)

The subject of experiment [3] is U87MG cells. As to the kind of experiment: Cellular assay for IDH1m inhibitors: inhibition of 2-HG production (LC-MS, 48 hours) in U87MG cells. It is filed as cell-based. The settings on record: Homo sapiens, U-87 MG, inhibition of 2-HG production, U87R132H cells; read-out: U87R132H IC50. Put shortly: as §1

Sequence of IDH1 R132H (O75874 whole entry R132H): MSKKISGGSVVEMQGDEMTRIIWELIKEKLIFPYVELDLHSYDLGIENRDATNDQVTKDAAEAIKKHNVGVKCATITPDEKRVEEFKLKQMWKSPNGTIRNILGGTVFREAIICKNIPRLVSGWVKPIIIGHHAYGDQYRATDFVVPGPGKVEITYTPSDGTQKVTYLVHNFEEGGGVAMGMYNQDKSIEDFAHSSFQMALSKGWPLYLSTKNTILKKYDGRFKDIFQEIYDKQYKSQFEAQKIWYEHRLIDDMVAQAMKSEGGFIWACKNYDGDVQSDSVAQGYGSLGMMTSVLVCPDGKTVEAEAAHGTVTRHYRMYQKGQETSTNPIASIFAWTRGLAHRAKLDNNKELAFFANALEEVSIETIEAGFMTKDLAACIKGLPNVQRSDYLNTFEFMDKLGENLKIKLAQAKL

With `C[C@@H]1CN(c2nc(C3CC3)c(-c3cccc4cnccc34)cc2C#N)CCN1C(=O)CC(F)(F)F` [Compound 386, (R)-6-cyclopropyl-5-(isoquinolin-5-yl)-2-(3-methyl-4-(3,3,3-trifluoropropanoyl)piperazin-1-yl)nicotinonitrile], the results for the IC50 in experiment [1], in experiment [2] and in experiment [3] were 1000 to 10000 nM, under 500 nM and 500 to 1000 nM, respectively.
Consider `N#Cc1cc(-c2cccc3cnccc23)c(C2CC2)nc1N1CCN(C(=O)CC(F)(F)F)[C@H](C2CC2)C1` [Compound 387, (R)-6-cyclopropyl-2-(3-cyclopropyl-4-(3,3,3-trifluoropropanoyl)piperazin-1-yl)-5-(isoquinolin-5-yl)nicotinonitrile], for which the IC50 in experiment [1], in experiment [2] and in experiment [3] was under 500 nM each time.
For the molecule `COCCC(=O)N1CCN(c2nc(C3CC3)c(OC(C)c3ccncc3)cc2C#N)C[C@H]1C` (stereo partly drawn) [Compound 388, 6-cyclopropyl-2-((R)-4-(3-methoxypropanoyl)-3-methylpiperazin-1-yl)-5-(1-(pyridin-4-yl)ethoxy)nicotinonitrile], the values for the IC50 in experiment [1], in experiment [2] and in experiment [3] were 1000 to 10000 nM, under 500 nM and 500 to 1000 nM, respectively.
Taken in the same sequence, the figures for `C=CC(=O)Nc1ccc(C(C)Oc2cc(C#N)c(N3CCN(C(=O)CCOC)[C@H](C)C3)nc2C2CC2)cc1` (stereo partly drawn) [Compound 389, N-(4-(1-(5-cyano-2-cyclopropyl-6-((R)-4-(3-methoxypropanoyl)-3-methylpiperazin-1-yl)pyridin-3-yloxy)ethyl)phenyl)acrylamide] were under 500 nM, under 500 nM and under 500 nM.
In the case of `C=Cc1cc(-c2cc(C#N)c(N3CCN(C(=O)CCOC)[C@H](C)C3)nc2C2CC2)ccn1` [Compound 390, (R)-2-cyclopropyl-6-(4-(3-methoxypropanoyl)-3-methylpiperazin-1-yl)-2′-vinyl-3,4′-bipyridine-5-carbonitrile], the IC50 in experiment [1], in experiment [2] and in experiment [3] was under 500 nM each time.
Regarding `N#Cc1cc(-c2cccc3cnccc23)c(C2CC2)nc1N1CCN(C(=O)C2CC2)[C@H](C2CC2)C1` [Compound 391, (R)-2-(4-(cyclopropanecarbonyl)-3-cyclopropylpiperazin-1-yl)-6-cyclopropyl-5-(isoquinolin-5-yl)nicotinonitrile], the IC50 in experiment [1] was 500 to 1000 nM; in experiment [2], under 500 nM; in experiment [3] it was 500 to 1000 nM.
In the case of `COCCC(=O)N1CCN(c2nc(C3CC3)c(-c3ccc(S(N)(=O)=O)cc3)c(C)c2C#N)C[C@H]1C` [Compound 393, (R)-4-{5-cyano-2-cyclopropyl-6-[4-(3-methoxy-propionyl)-3-methyl-piperazin-1-yl]-4-methyl-pyridin-3-yl}-benzenesulfonamide], the IC50 in experiment [1] is 1000 to 10000 nM; in experiment [2], under 500 nM; in experiment [3], 500 to 1000 nM.
In the same order, the values of `COCCC(=O)N1CCN(c2nc(C3CC3)c(-c3cccc4cnccc34)cc2C#N)CC1C(F)(F)F` (stereo not drawn) [Compound 398, 6-cyclopropyl-5-(isoquinolin-5-yl)-2-(4-(3-methoxypropanoyl)-3-(trifluoromethyl)piperazin-1-yl)nicotinonitrile] are 1000 to 10000 nM, under 500 nM and 500 to 1000 nM.
Taken in the same sequence, the figures for `C/C=C/C(=O)Nc1cccc(COc2cc(C#N)c(N3CCN(C(=O)CCOC)[C@H](C)C3)nc2C2CC2)c1` [Compound 400, (R,E)-N-(3-((5-cyano-2-cyclopropyl-6-(4-(3-methoxypropanoyl)-3-methylpiperazin-1-yl)pyridin-3-yloxy)methyl)phenyl)but-2-enamide] were 1000 to 10000 nM, 500 to 1000 nM and 1000 to 10000 nM.
Taken in the same sequence, the figures for `COCCC(=O)N1CCN(c2nc(C3CC3)c(-c3ccnc(Cl)c3)cc2C#N)C[C@H]1C` [Compound 401, (R)-2′-chloro-2-cyclopropyl-6-(4-(3-methoxypropanoyl)-3-methylpiperazin-1-yl)-3,4′-bipyridine-5-carbonitrile] were 1000 to 10000 nM, 500 to 1000 nM and 1000 to 10000 nM.
For `COCCC(=O)N1CCN(c2nc(C3CC3)c(-c3cccc(NC(=O)CCl)c3)cc2C#N)C[C@H]1C` [Compound 403, (R)-2-chloro-N-(3-(5-cyano-2-cyclopropyl-6-(4-(3-methoxypropanoyl)-3-methylpiperazin-1-yl)pyridin-3-yl)phenyl)acetamide], the IC50 was 500 to 1000 nM in experiment [1], under 500 nM in experiment [2] and 500 to 1000 nM in experiment [3].
On to `COCCC(=O)N1CCN(c2nc(C3CC3)c(-c3cccc(-c4cn[nH]c4)c3)cc2C#N)C[C@H]1C` [Compound 406, (R)-6-cyclopropyl-2-[4-(3-methoxy-propionyl)-3-methyl-piperazin-1-yl]-5-[3-(1H-pyrazol-4-yl)-phenyl]-nicotinonitrile], for which the IC50 in experiment [1] was 1000 to 10000 nM; in experiment [2] it was under 500 nM; in experiment [3], 1000 to 10000 nM.
For `C=CC(=O)Nc1cccc(C(C)Oc2cc(C#N)c(N3CCN(C(=O)CCOC)[C@H](C)C3)nc2C2CC2)c1` (stereo partly drawn) [Compound 407, N-(3-(1-(5-cyano-2-cyclopropyl-6-((R)-4-(3-methoxypropanoyl)-3-methylpiperazin-1-yl)pyridin-3-yloxy)ethyl)phenyl)acrylamide], the IC50 in experiment [1], in experiment [2] and in experiment [3] was under 500 nM in each case.
In the case of `COCCC(=O)N1CCN(c2nc(C3CC3)c(-c3cncc4ccccc34)c(C)c2C#N)C[C@H]1C` [Compound 408, 6-cyclopropyl-5-(isoquinolin-4-yl)-2-((R)-4-(3-methoxypropanoyl)-3-methylpiperazin-1-yl)-4-methylnicotinonitrile], the IC50 in experiment [1] was 500 to 1000 nM; in experiment [2], under 500 nM; in experiment [3] it was under 500 nM.
As to `COCCC(=O)N1CCN(c2nc(C3CC3)c(-c3cccc4cnccc34)cc2C#N)C[C@H]1C1CC1` [Compound 409, (R)-6-cyclopropyl-2-(3-cyclopropyl-4-(3-methoxypropanoyl)piperazin-1-yl)-5-(isoquinolin-5-yl)nicotinonitrile], the IC50 in experiment [1], in experiment [2] and in experiment [3] was under 500 nM each time.
On to `COCCC(=O)N1CCN(c2nc(C3CC3)c(-c3cccc4cnccc34)c(C)c2C#N)C[C@H]1C` [Compound 410, 6-cyclopropyl-5-(isoquinolin-5-yl)-2-((R)-4-(3-methoxypropanoyl)-3-methylpiperazin-1-yl)-4-methylnicotinonitrile], for which the IC50 in experiment [1], in experiment [2] and in experiment [3] was under 500 nM throughout.
With `COCCC(=O)N1CCN(c2nc(C3CC3)c(-c3ccc(N)cc3)c(C)c2C#N)C[C@H]1C` [Compound 411, (R)-5-(4-aminophenyl)-6-cyclopropyl-2-(4-(3-methoxypropanoyl)-3-methylpiperazin-1-yl)-4-methylnicotinonitrile], the figures for the IC50 in experiment [1], in experiment [2] and in experiment [3] were 500 to 1000 nM, under 500 nM and 500 to 1000 nM, respectively.
In the case of `COCCC(=O)N1CCN(c2nc(C3CC3)c(-c3ccc(NC(C)=O)cc3)cc2C#N)C[C@H]1C` [Compound 412, (R)—N-(4-(5-cyano-2-cyclopropyl-6-(4-(3-methoxypropanoyl)-3-methylpiperazin-1-yl)pyridin-3-yl)phenyl)acetamide], the IC50 is 1000 to 10000 nM in experiment [1], under 500 nM in experiment [2] and 500 to 1000 nM in experiment [3].
In the same order, the values of `C/C=C/C(=O)Nc1cccc(-c2cc(C#N)c(N3CCN(C(=O)CCOC)[C@H](C)C3)nc2C2CC2)c1` [Compound 415, (R,E)-N-(3-(5-cyano-2-cyclopropyl-6-(4-(3-methoxypropanoyl)-3-methylpiperazin-1-yl)pyridin-3-yl)phenyl)but-2-enamide] are 1000 to 10000 nM, under 500 nM and 1000 to 10000 nM.
`COCCC(=O)N1CCN(c2nc(C3CC3)c(-c3cccc(NC(=O)C(C)=O)c3)cc2C#N)C[C@H]1C` [Compound 416, (R)—N-(3-(5-cyano-2-cyclopropyl-6-(4-(3-methoxypropanoyl)-3-methylpiperazin-1-yl)pyridin-3-yl)phenyl)-2-oxopropanamide]: the IC50 was in the range of 1000 to 10000 nM in experiment [1], 500 to 1000 nM in experiment [2] and 500 to 1000 nM in experiment [3].
As for `COCCC(=O)N1CCN(c2nc(C3CC3)c(-c3ccc4nc(N)sc4c3)cc2C#N)C[C@H]1C` [Compound 417, (R)-5-(2-amino-benzothiazol-6-yl)-6-cyclopropyl-2-[4-(3-methoxy-propionyl)-3-methyl-piperazin-1-yl]-nicotinonitrile], the IC50 in experiment [1], in experiment [2] and in experiment [3] was under 500 nM each time.
With `COCCC(=O)N1CCN(c2nc(C3CC3)c(-c3cn(C)c(=O)c4ccccc34)cc2C#N)C[C@H]1C` [Compound 418, (R)-6-cyclopropyl-2-[4-(3-methoxy-propionyl)-3-methyl-piperazin-1-yl]-5-(2-methyl-1-oxo-1,2-dihydro-isoquinolin-4-yl)-nicotinonitrile], the IC50 in experiment [1], in experiment [2] and in experiment [3] was under 500 nM throughout.
In the case of `COCCC(=O)N1CCN(c2nc(C3CC3)c(-c3cccc4c[n+]([O-])ccc34)cc2C#N)C[C@H]1C` [Compound 420, (R)-5-(5-cyano-2-cyclopropyl-6-(4-(3-methoxypropanoyl)-3-methylpiperazin-1-yl)pyridin-3-yl)isoquinoline 2-oxide], the figures for the half-maximal inhibitory concentration (IC50) in experiment [1], in experiment [2] and in experiment [3] were 1000 to 10000 nM, under 500 nM and 1000 to 10000 nM, respectively.

Broadly, the IC50 is the midpoint of a concentration-inhibition curve.
